Results from ChEMBL document CHEMBL3045300, “Synthesis of photolabile lac-acetogenin for photoaffinity labeling of mitochondrial complex I” (J Pestic Sci, 2006).

Tests used:
[1] = Inhibition of Bos taurus (bovine) heart submitochondrial NADH complex 1 by NADH oxidase assay
[2] = species on record: Bos taurus; assay: Inhibition of Bos taurus (bovine) heart submitochondrial NADH complex 1 at 12 nM by NADH oxidase assay

SMILES: CCCCCCCCCC[C@@H](O)[C@H]1CC[C@H]([C@H]2CC[C@H]([C@H](O)CCCCCCCCCC)O2)O1 [dleta-lac-Acetogenin]
- IC50 [1]: 1.8 nM

SMILES: O=C1N[C@H]2[C@H](CS[C@H]2CCCCC(=O)OCCCCCCC[C@@H](O)[C@H]2CC[C@H]([C@H]3CC[C@H]([C@H](O)CCCCCCOc4ccc(C5(C(F)(F)F)N=N5)cc4)O3)O2)N1
- inhibition [2]: > 95%
- IC50 [1]: 3.9 nM
